The assay relates to Mycobacterium tuberculosis. Nature of the assay: Antibacterial activity against 2-(quinolin-4-yloxy)acetamide resistant Mycobacterium tuberculosis harboring qcrB gene T313A mutant. Type of assay: functional.

For orientation: MIC means the lowest concentration found to suppress growth. A lower MIC goes with greater potency.

Values after ≈ are worked out from the molar mass of the structure shown.

For the compound `CCc1ccc(NCCCOc2cc(C)nc3ccc(Br)cc23)cc1`, the MIC was 3.13 µM (≈ 1.25 µg/mL).

These data come from ChEMBL document CHEMBL6078678, “Unveiling the Antimycobacterial Potential of Novel 4-Alkoxyquinolines: Insights into Selectivity, Mechanism of Action, and In Vivo Exposure” (J Med Chem, 2024).
